The assay deals with Wistaria floribunda agglutinin. Kind of assay: Lectin affinity chromatography on W. floribunda agglutinin agarose. The assay is classed as binding. To be noted: elution with 100 mM N-acetylgalactosamine as specific inhibitor, FIG. 7. As for the experimental part:
Lectin affinity chromatography was performed as previously described (Nakano et al., Arch. Biochem. Biophys. 311, 117-126, 1994). Briefly, radiolabeled core glycans derived from glycolipid II, III (core glycan A and B respectively) and rat brain THY1 membrane anchor were applied to a 1 ml column of W. floribunda agglutinin agarose (5 mg lectin/ml gel) equilibrated in 50 mM Tris-HCl, pH 7.4 containing 0.02% sodium azide. Elution was accomplished using 25 ml of equilbration buffer followed by 15 ml of the same buffer containing 100 mM N-acetylgalactosamine as specific inhibitor.
FIG. 7: Analysis of core glycans derived from TLC purified glycolipids labelled with ^3H glucosamine on Wisaria floribunda agglutinin agarose: Core glycan A (A), core glycan (B), Man4GalNAcAHM from rat brain Thy1 anchor (C), arrow indicates buffer change

In the case of Man3(GalNAc)AHM [Core glycan A], the “Affinity towards W. floribunda agglutinin column” value is given as “bound to the column”.

These data come from patent US20020058288A1, “TOXOPLASMA GONDII GLYCOCONJUGATES” (priority 1995, published 2002).
